From patent US20230271950A1, “ANTIBACTERIAL PICOLINAMIDE COMPOUNDS” (University of Notre Dame Du Lac, priority 2020, published 2023)
In brackets after ≈: the same amount, converted by molar mass. Where two headings read alike, the source gives them in different places.

How the values were obtained:
C. difficile = test: MIC by broth microdilution against C. difficile strains; type: cell-based, Clostridioides difficile; conditions: for MIC: Clostridioides difficile, ATCC43255, ATCC 43255, ribotype 087, read-out: MIC C. difficile; for Selectivity: MIC MRSA/MIC C. difficile, Table 3
MRSA (NRS70, NRS119) = test: MIC against MRSA strains; type: cell-based, Staphylococcus aureus; conditions: Staphylococcus aureus, NRS70 strain, read-out: MIC MRSA
S. aureus ATCC29213 = test: MIC against MSSA; type: cell-based, Staphylococcus aureus; conditions: Staphylococcus aureus; MSSA ATCC 29213; Table 10, unit inferred; read-out: Activity (MIC) against S. aureus
E. faecium NCTC7171 = test: MIC against E. faecium; type: cell-based, Enterococcus faecium; conditions: Enterococcus faecium, NCTC7171; E. faecium NCTC 7171; Table 10, unit inferred; read-out: Activity (MIC) against E. faecium
HeLa cells = test: XTT cytotoxicity assay with HeLa cells; type: cell-based; conditions: Homo sapiens, Table 6
Experimental: XTT assay. Cytotoxicity assays were performed in triplicate against HeLa cells (ATCC CCL-2). The IC50 values were calculated by nonlinear regression with GraphPad Prism 5 (San Diego, Calif.).
XTT assay. XTT assays were performed with HeLa cells (ATCC CCL-2) in triplicate, as previously described (Lancet 2008, 371, 1486). IC50 values were determined by nonlinear regression using GraphPad Prism 5 (San Diego, Calif.).

Row | SMILES | MIC (C. difficile; Table 3 (SAR^2 and SAR^3)) | MIC (MRSA (NRS70, NRS119); Table 3 (SAR^2 and SAR^3)) | MIC (S. aureus ATCC29213) | MIC (E. faecium NCTC7171) | MIC (C. difficile; Table 2 (SAR^1)) | MIC (MRSA (NRS70, NRS119); Table 2 (SAR^1)) | Selectivity (C. difficile) | IC50 (HeLa cells)
1 | O=C(Nc1ncco1)c1cc(-c2cccc(C(F)(F)F)c2)ccn1 [Compound 98, N-(Oxazol-2-yl)-4-(3-(trifluoromethyl)phenyl)picolinamide] | 0.5 µg/mL (≈ 1.5 µM) | 64 µg/mL (≈ 192 µM) | ≥ 128 µg/mL | ≥ 128 µg/mL |  |  | 128 | 115 ± 2.2 µg/mL (≈ 344 µM)
2 | O=C(Nc1ncco1)c1cc(-c2ccc(Cl)c(F)c2)ccn1 [Compound 92, 4-(4-Chloro-3-fluorophenyl)-N-(oxazol-2-yl)picolinamide] | 0.25 µg/mL (≈ 0.787 µM) | 128 µg/mL (≈ 403 µM) | ≥ 128 µg/mL | ≥ 128 µg/mL |  |  | 512 | > 256 µg/mL
3 | O=C(Nc1ncco1)c1cc(-c2cc(F)cc(F)c2)ccn1 [Compound 94, 4-(3,5-Difluorophenyl)-N-(oxazol-2-yl)picolinamide] | 1 µg/mL (≈ 3.32 µM) | 64 µg/mL (≈ 212 µM) | ≥ 128 µg/mL | ≥ 128 µg/mL |  |  | 64 | 40.1 ± 1.6 µg/mL (≈ 133 µM)
4 | O=C(Nc1ncco1)c1cc(-c2ccc(F)c(F)c2)ccn1 [Compound 90, 4-(3,4-Difluorophenyl)-N-(oxazol-2-yl)picolinamide] | 0.5 µg/mL (≈ 1.66 µM) | 128 µg/mL (≈ 425 µM) | ≥ 128 µg/mL | ≥ 128 µg/mL |  |  | 256 | > 64 µg/mL
5 | O=C(Nc1ncco1)c1cc(-c2ccc(F)cc2)ccn1 [Compound 89, 4-(4-Fluorophenyl)-N-(oxazol-2-yl)picolinamide] | 1 µg/mL (≈ 3.53 µM) | 64 µg/mL (≈ 226 µM) | ≥ 128 µg/mL | ≥ 128 µg/mL |  |  | 64 | 170 ± 2.5 µg/mL (≈ 601 µM)
6 | O=C(O)c1ccc2nc(NC(=O)c3cc(-c4cccc(OC(F)(F)F)c4)ccn3)oc2c1 [Compound 119, 2-(4-(3-(Trifluoromethoxy)phenyl)picolinamido)benzo[d]oxazole-6-carboxylic acid] |  |  |  |  |  |  |  | 124 ± 3.3 µg/mL (≈ 279 µM)
7 | COC(=O)c1ccc2oc(NC(=O)c3cc(Oc4ccc(F)c(F)c4)ccn3)nc2c1 [Compound 114, Methyl 2-(4-(3,4-difluorophenoxy)picolinamido)benzo[d]oxazole-5-carboxylate] |  |  | 128 µg/mL (≈ 301 µM) | ≥ 128 µg/mL |  |  |  | 53.3 ± 3.6 µg/mL (≈ 125 µM)
8 | O=C(Nc1ncco1)c1cc(Oc2ccc(OC(F)(F)F)cc2)ccn1 [Compound 109, N-(Oxazol-2-yl)-4-(4-(trifluoromethoxy)phenoxy)picolinamide] |  |  | ≥ 128 µg/mL | ≥ 128 µg/mL |  |  |  | 77.4 ± 2.3 µg/mL (≈ 212 µM)
9 | O=C(Nc1ncco1)c1cc(-c2cccc(F)c2)ccn1 [Compound 93, 4-(3-Fluorophenyl)-N-(oxazol-2-yl)picolinamide] | 0.5 µg/mL (≈ 1.77 µM) | 64 µg/mL (≈ 226 µM) | ≥ 128 µg/mL | ≥ 128 µg/mL |  |  | 128 | > 64 µg/mL
10 | O=C(O)c1ccc2nc(NC(=O)c3cc(-c4ccc(OC(F)(F)F)cc4)ccn3)oc2c1 [Compound 118, 2-(4-(4-(Trifluoromethoxy)phenyl)picolinamido)benzo[d]oxazole-6-carboxylic acid] |  |  | 8 µg/mL (≈ 18 µM) | 64 µg/mL (≈ 144 µM) |  |  |  | 79.9 ± 6.3 µg/mL (≈ 180 µM)
11 | O=C(Nc1ncco1)c1cc(Oc2ccc(SC(F)(F)F)cc2)ccn1 [Compound 110, N-(Oxazol-2-yl)-4-(4-((trifluoromethyl)thio)phenoxy)picolinamide] |  |  | ≥ 128 µg/mL | ≥ 128 µg/mL |  |  |  | 91.6 ± 1.3 µg/mL (≈ 240 µM)
12 | O=C(Nc1ncco1)c1cc(-c2ccc(C(F)(F)F)cc2)ccn1 [Compound 97, N-(Oxazol-2-yl)-4-(4-(trifluoromethyl)phenyl)picolinamide] | 0.25 µg/mL (≈ 0.75 µM) | 128 µg/mL (≈ 384 µM) | ≥ 128 µg/mL | ≥ 128 µg/mL |  |  | 512 | 135 ± 8.6 µg/mL (≈ 405 µM)
13 | O=C(Nc1ncco1)c1cc(Oc2ccc(F)c(F)c2)ccn1 [Compound 106, 4-(3,4-Difluorophenoxy)-N-(oxazol-2-yl)picolinamide] |  |  | 64 µg/mL (≈ 202 µM) | 128 µg/mL (≈ 403 µM) |  |  |  | 106 ± 2.1 µg/mL (≈ 334 µM)
14 | O=C(Nc1ncco1)c1cc(-c2ccc(F)c(Cl)c2)ccn1 [Compound 91, 4-(3-Chloro-4-fluorophenyl)-N-(oxazol-2-yl)picolinamide] | 0.25 µg/mL (≈ 0.787 µM) | 128 µg/mL (≈ 403 µM) | ≥ 128 µg/mL | ≥ 128 µg/mL |  |  | 512 | 

The remaining compounds from weak to strong by MIC (S. aureus ATCC29213), led by results:

Row | MIC (C. difficile; Table 3 (SAR^2 and SAR^3)) | MIC (MRSA (NRS70, NRS119); Table 3 (SAR^2 and SAR^3)) | MIC (S. aureus ATCC29213) | MIC (E. faecium NCTC7171) | MIC (C. difficile; Table 2 (SAR^1)) | MIC (MRSA (NRS70, NRS119); Table 2 (SAR^1)) | SMILES | Selectivity (C. difficile) | IC50 (HeLa cells)
15 | 2 µg/mL (≈ 6.96 µM) | 4 µg/mL (≈ 13.9 µM) | 8 µg/mL (≈ 27.9 µM) | 8 µg/mL (≈ 27.9 µM) |  |  | O=C(Nc1ncco1)c1ccnc(OCC(F)(F)F)c1 [Compound 64, N-(Oxazol-2-yl)-2-(2,2,2-trifluoroethoxy)isonicotinamide] | 2 | 
16 | 2 µg/mL (≈ 7.06 µM) | 4 µg/mL (≈ 14.1 µM) | 4 µg/mL (≈ 14.1 µM) | 8 µg/mL (≈ 28.2 µM) |  |  | O=C(Nc1ncco1)c1ccnc(-c2ccc(F)cc2)c1 [Compound 36, 2-(4-Fluorophenyl)-N-(oxazol-2-yl)isonicotinamide] | 2 | 
17 | 1 µg/mL (≈ 3.53 µM) | 2 µg/mL (≈ 7.06 µM) | 2 µg/mL (≈ 7.06 µM) | 4 µg/mL (≈ 14.1 µM) |  |  | O=C(Nc1ncco1)c1ccnc(-c2cccc(F)c2)c1 [Compound 37, 2-(3-Fluorophenyl)-N-(oxazol-2-yl)isonicotinamide] | 2 | 
18 | 0.25 µg/mL (≈ 0.787 µM) | 0.25 µg/mL (≈ 0.787 µM) | 0.5 µg/mL (≈ 1.57 µM) | 1 µg/mL (≈ 3.15 µM) |  |  | O=C(Nc1ncco1)c1ccnc(-c2ccc(F)c(Cl)c2)c1 [Compound 40, 2-(3-Chloro-4-fluorophenyl)-N-(oxazol-2-yl)isonicotinamide] | 1 | 
19 | 0.5 µg/mL (≈ 1.67 µM) | 0.25 µg/mL (≈ 0.834 µM) | 0.5 µg/mL (≈ 1.67 µM) | 1 µg/mL (≈ 3.34 µM) |  |  | O=C(Nc1ncco1)c1ccnc(-c2cccc(Cl)c2)c1 [Compound 33, 2-(3-Chlorophenyl)-N-(oxazol-2-yl)isonicotinamide] | 0.5 | 
20 | 0.5 µg/mL (≈ 1.45 µM) | 0.25 µg/mL (≈ 0.726 µM) | 0.5 µg/mL (≈ 1.45 µM) | 1 µg/mL (≈ 2.91 µM) |  |  | O=C(Nc1ncco1)c1ccnc(-c2ccc(Br)cc2)c1 [Compound 48, 2-(4-Bromophenyl)-N-(oxazol-2-yl)isonicotinamide] | 0.5 | 
21 | 0.25 µg/mL (≈ 0.71 µM) | 2 µg/mL (≈ 5.68 µM) | 0.5 µg/mL (≈ 1.42 µM) | 1 µg/mL (≈ 2.84 µM) |  |  | O=C(Nc1ncco1)c1ccnc(-c2ccc(Cl)c(Cl)c2)c1F [Compound 66, 2-(3,4-Dichlorophenyl)-3-fluoro-N-(oxazol-2-yl)isonicotinamide] | 8 | 
22 | 0.12 µg/mL (≈ 0.378 µM) | 0.0625 µg/mL (≈ 0.197 µM) | 0.25 µg/mL (≈ 0.787 µM) | 0.5 µg/mL (≈ 1.57 µM) |  |  | O=C(Nc1ncco1)c1ccnc(-c2cc(F)cc(Cl)c2)c1 [Compound 43, 2-(3-Chloro-5-fluorophenyl)-N-(oxazol-2-yl)isonicotinamide] | 0.5 | 
23 | 0.25 µg/mL (≈ 0.75 µM) | 0.25 µg/mL (≈ 0.75 µM) | 0.25 µg/mL (≈ 0.75 µM) | 1 µg/mL (≈ 3 µM) |  |  | O=C(Nc1ncco1)c1ccnc(-c2cccc(C(F)(F)F)c2)c1 [Compound 45, N-(Oxazol-2-yl)-2-(3-(trifluoromethyl)phenyl)isonicotinamide] | 1 | 
24 | 0.125 µg/mL (≈ 0.393 µM) | 0.0625 µg/mL (≈ 0.197 µM) | 0.25 µg/mL (≈ 0.787 µM) | 0.5 µg/mL (≈ 1.57 µM) |  |  | O=C(Nc1ncco1)c1ccnc(-c2ccc(Cl)c(F)c2)c1 [Compound 39, 2-(4-Chloro-3-fluorophenyl)-N-(oxazol-2-yl)isonicotinamide] | 0.5 | 
25 | 0.25 µg/mL (≈ 0.75 µM) | 1 µg/mL (≈ 3 µM) | 0.25 µg/mL (≈ 0.75 µM) | 1 µg/mL (≈ 3 µM) |  |  | O=C(Nc1ncco1)c1ccnc(-c2ccc(C(F)(F)F)cc2)c1 [Compound 44, N-(Oxazol-2-yl)-2-(4-(trifluoromethyl)phenyl)isonicotinamide] | 4 | 
26 |  |  | 0.12 µg/mL (≈ 0.343 µM) | 0.5 µg/mL (≈ 1.43 µM) |  |  | O=C(Nc1ncco1)c1ccnc(Oc2ccc(Cl)c(Cl)c2)c1 [Compound 99, 2-(3,4-Dichlorophenoxy)-N-(oxazol-2-yl)isonicotinamide] |  | 37 ± 1 µg/mL (≈ 106 µM)
27 |  |  | 0.06 µg/mL (≈ 0.172 µM) | 0.25 µg/mL (≈ 0.718 µM) | 0.25 µg/mL (≈ 0.718 µM) | 0.06 µg/mL (≈ 0.172 µM) | Cc1coc(NC(=O)c2ccnc(-c3ccc(Cl)c(Cl)c3)c2)n1 [Compound 14, 2-(3,4-Dichlorophenyl)-N-(4-methyloxazol-2-yl)isonicotinamide] |  | 
